Reference: patent US5840684A, “Glycopeptide antibiotic derivatives” (Eli Lilly and Company, priority 1995, dated 1998)
In brackets after ≈: the same amount, converted by molar mass.

How the values were obtained:
[1] = test system: Staphylococcus aureus S13E; type: cell-based
Description: (§1) The MIC's were determined using a standard broth micro-dilution assay.

[2] = test system: Staphylococcus aureus SA1199B; type: cell-based
Description: as §1

[3] = test system: Entercoccus faecium 180-1; test: broth micro-dilution MIC; type: cell-based
Description: as §1

Entercoccus faecium 276 = test: broth micro-dilution MIC; type: cell-based
Description: as §1

[4] = test system: Staphylococcus aureus 446; test: broth micro-dilution MIC; type: cell-based
Description: as §1

[5] = test system: Staphylococcus aureus 447; test: broth micro-dilution MIC; type: cell-based
Description: as §1

[6] = test system: Staphylococcus aureus 489; test: broth micro-dilution MIC; type: cell-based
Description: as §1

[7] = test system: Staphylococcus aureus 491; test: broth micro-dilution MIC; type: cell-based
Description: as §1

[8] = test system: Staphylococcus aureus SA1199A; test: broth micro-dilution MIC; type: cell-based
Description: as §1

[9] = test system: Staphylococcus aureus SA1199; test: broth micro-dilution MIC; type: cell-based
Description: as §1

[10] = test system: Staphylococcus aureus X400; test: broth micro-dilution MIC; type: cell-based
Description: as §1

[11] = test system: Staphylococcus aureus X778; test: broth micro-dilution MIC; type: cell-based
Description: as §1

[12] = test system: Streptococcus pyogenes C203; test: broth micro-dilution MIC; type: cell-based
Description: as §1

Entercoccus faecium 180 = test: broth micro-dilution MIC; type: cell-based; details: Entercoccus faecium 180
Description: (§2) The formula I compounds have in vitro and in vivo activity against Gram-positive pathogenic bacteria. The MIC's were determined using a standard broth micro-dilution assay.

Entercoccus faecium 2041 = test: broth micro-dilution MIC; type: cell-based; details: Entercoccus faecium 2041
Description: as §2

[13] = test system: Enterococcus gallinarum 245; test: broth micro-dilution MIC; type: cell-based; details: Enterococcus gallinarum 245
Description: as §2

[14] = test system: Staphylococcus epidermidis 270; test: broth micro-dilution MIC; type: cell-based
Description: as §2

[15] = test system: Staphylococcus haemolyticus 105; test: broth micro-dilution MIC; type: cell-based
Description: as §2

[16] = test system: Staphylococcus haemolyticus 415; test: broth micro-dilution MIC; type: cell-based
Description: as §2

[17] = test system: Streptococcus pneumoniae P1; test: broth micro-dilution MIC; type: cell-based
Description: as §2

[18] = test system: vancomycin-resistant enterococci; test: broth micro-dilution, mean geometric MIC; type: cell-based, Enterococcus faecium and Enterococcus faecalis; details: enterococci, 24-hour incubation
[19] = test system: vancomycin-susceptible enterococci; test: broth micro-dilution, mean geometric MIC; type: cell-based, Enterococcus faecium and Enterococcus faecalis; details: enterococci, 24-hour incubation

CNC(CC(C)C)C(=O)NC1C(=O)NC(CC(N)=O)C(=O)NC2C(=O)NC3C(=O)NC(C(=O)NC(C(=O)O)c4cc(O)cc(O)c4-c4cc3ccc4O)C(OC3CC(C)(N)C(O)C(C)O3)c3ccc(c(Cl)c3)Oc3cc2cc(c3OC2OC(CO)C(O)C(O)C2OC2CC(C)(NCc3ccc(OC(=O)c4ccccc4)cc3)C(O)C(C)O2)Oc2ccc(cc2Cl)C1O (stereo not shown) [Compound 150]
MIC [1]: 0.25 µg/mL (≈ 0.139 µM) | MIC [2]: 0.5 µg/mL (≈ 0.277 µM) | MIC [3]: ≤ 0.06 µg/mL | MIC (Entercoccus faecium 276): 1 µg/mL (≈ 0.555 µM) | MIC [4]: 1 µg/mL (≈ 0.555 µM) | MIC [5]: 0.5 µg/mL (≈ 0.277 µM) | MIC [6]: 0.5 µg/mL (≈ 0.277 µM) | MIC [7]: ≤ 0.06 µg/mL | MIC [8]: ≤ 0.06 µg/mL | MIC [9]: 1 µg/mL (≈ 0.555 µM) | MIC [10]: ≤ 0.06 µg/mL | MIC [11]: 2 µg/mL (≈ 1.11 µM) | MIC [12]: ≤ 0.06 µg/mL | MIC (Entercoccus faecium 180): 0.25 µg/mL (≈ 0.139 µM) | MIC (Entercoccus faecium 2041): ≤ 0.06 µg/mL | MIC [13]: 2 µg/mL (≈ 1.11 µM) | MIC [14]: 0.25 µg/mL (≈ 0.139 µM) | MIC [15]: 1 µg/mL (≈ 0.555 µM) | MIC [16]: 2 µg/mL (≈ 1.11 µM) | MIC [17]: ≤ 0.06 µg/mL | mean geometric MIC, Vancomycin Resistant Strains [18]: 1.7 µg/mL | mean geometric MIC, Vancomycin Sensitive Strains [19]: 0.25 µg/mL

CNC(CC(C)C)C(=O)NC1C(=O)NC(CC(N)=O)C(=O)NC2C(=O)NC3C(=O)NC(C(=O)NC(C(=O)O)c4cc(O)cc(O)c4-c4cc3ccc4O)C(OC3CC(C)(N)C(O)C(C)O3)c3ccc(c(Cl)c3)Oc3cc2cc(c3OC2OC(CO)C(O)C(O)C2OC2CC(C)(NCc3cccc(Sc4ccc(C(C)(C)C)cc4)c3)C(O)C(C)O2)Oc2ccc(cc2Cl)C1O (stereo not shown) [Compound 228]
MIC [1]: 8 µg/mL (≈ 4.33 µM) | MIC [2]: 4 µg/mL (≈ 2.17 µM) | MIC [3]: ≤ 0.06 µg/mL | MIC (Entercoccus faecium 276): 1 µg/mL (≈ 0.541 µM) | MIC [4]: 4 µg/mL (≈ 2.17 µM) | MIC [5]: 4 µg/mL (≈ 2.17 µM) | MIC [6]: 2 µg/mL (≈ 1.08 µM) | MIC [7]: 1 µg/mL (≈ 0.541 µM) | MIC [8]: ≤ 0.06 µg/mL | MIC [9]: 4 µg/mL (≈ 2.17 µM) | MIC [10]: 1 µg/mL (≈ 0.541 µM) | MIC [11]: 4 µg/mL (≈ 2.17 µM) | MIC [12]: 0.125 µg/mL (≈ 0.0677 µM) | MIC (Entercoccus faecium 180): 1 µg/mL (≈ 0.541 µM) | MIC (Entercoccus faecium 2041): 0.25 µg/mL (≈ 0.135 µM) | MIC [13]: 4 µg/mL (≈ 2.17 µM) | MIC [14]: 2 µg/mL (≈ 1.08 µM) | MIC [15]: 2 µg/mL (≈ 1.08 µM) | MIC [16]: 4 µg/mL (≈ 2.17 µM) | MIC [17]: ≤ 0.06 µg/mL | mean geometric MIC, Vancomycin Resistant Strains [18]: 1.0 µg/mL | mean geometric MIC, Vancomycin Sensitive Strains [19]: 0.14 µg/mL

CNC(CC(C)C)C(=O)NC1C(=O)NC(CC(N)=O)C(=O)NC2C(=O)NC3C(=O)NC(C(=O)NC(C(=O)O)c4cc(O)cc(O)c4-c4cc3ccc4O)C(OC3CC(C)(N)C(O)C(C)O3)c3ccc(c(Cl)c3)Oc3cc2cc(c3OC2OC(CO)C(O)C(O)C2OC2CC(C)(NCc3cccc(Oc4ccc(Cl)cc4)c3)C(O)C(C)O2)Oc2ccc(cc2Cl)C1O (stereo not shown) [Compound 86]
MIC [1]: 1 µg/mL (≈ 0.553 µM) | MIC [2]: 1 µg/mL (≈ 0.553 µM) | MIC [3]: ≤ 0.06 µg/mL | MIC (Entercoccus faecium 276): ≤ 0.06 µg/mL | MIC [4]: 1 µg/mL (≈ 0.553 µM) | MIC [5]: 0.5 µg/mL (≈ 0.276 µM) | MIC [6]: 1 µg/mL (≈ 0.553 µM) | MIC [7]: 1 µg/mL (≈ 0.553 µM) | MIC [8]: ≤ 0.06 µg/mL | MIC [9]: 0.5 µg/mL (≈ 0.276 µM) | MIC [10]: 1 µg/mL (≈ 0.553 µM) | MIC [11]: 1 µg/mL (≈ 0.553 µM) | MIC [12]: ≤ 0.06 µg/mL | MIC (Entercoccus faecium 180): ≤ 0.06 µg/mL | MIC (Entercoccus faecium 2041): ≤ 0.06 µg/mL | MIC [13]: 1 µg/mL (≈ 0.553 µM) | MIC [14]: 1 µg/mL (≈ 0.553 µM) | MIC [15]: 1 µg/mL (≈ 0.553 µM) | MIC [16]: 1 µg/mL (≈ 0.553 µM) | MIC [17]: ≤ 0.06 µg/mL | mean geometric MIC, Vancomycin Resistant Strains [18]: 1.4 µg/mL | mean geometric MIC, Vancomycin Sensitive Strains [19]: 0.036 µg/mL

CNC(CC(C)C)C(=O)NC1C(=O)NC(CC(N)=O)C(=O)NC2C(=O)NC3C(=O)NC(C(=O)NC(C(=O)O)c4cc(O)cc(O)c4-c4cc3ccc4O)C(OC3CC(C)(N)C(O)C(C)O3)c3ccc(c(Cl)c3)Oc3cc2cc(c3OC2OC(CO)C(O)C(O)C2OC2CC(C)(NCc3cccc(OC4CCCCC4)c3)C(O)C(C)O2)Oc2ccc(cc2Cl)C1O (stereo not shown) [Compound 153]
MIC [1]: 0.125 µg/mL (≈ 0.0702 µM) | MIC [2]: 0.25 µg/mL (≈ 0.14 µM) | MIC [3]: ≤ 0.06 µg/mL | MIC (Entercoccus faecium 276): 0.5 µg/mL (≈ 0.281 µM) | MIC [4]: 0.5 µg/mL (≈ 0.281 µM) | MIC [5]: 0.5 µg/mL (≈ 0.281 µM) | MIC [6]: 1 µg/mL (≈ 0.562 µM) | MIC [7]: 0.125 µg/mL (≈ 0.0702 µM) | MIC [8]: ≤ 0.06 µg/mL | MIC [9]: 0.5 µg/mL (≈ 0.281 µM) | MIC [10]: 0.5 µg/mL (≈ 0.281 µM) | MIC [11]: 0.5 µg/mL (≈ 0.281 µM) | MIC [12]: ≤ 0.06 µg/mL | MIC (Entercoccus faecium 180): 0.125 µg/mL (≈ 0.0702 µM) | MIC (Entercoccus faecium 2041): ≤ 0.06 µg/mL | MIC [13]: 1 µg/mL (≈ 0.562 µM) | MIC [14]: 0.25 µg/mL (≈ 0.14 µM) | MIC [15]: 2 µg/mL (≈ 1.12 µM) | MIC [16]: 1 µg/mL (≈ 0.562 µM) | MIC [17]: ≤ 0.06 µg/mL | mean geometric MIC, Vancomycin Resistant Strains [18]: 1.4 µg/mL | mean geometric MIC, Vancomycin Sensitive Strains [19]: 0.083 µg/mL
